Test results reported in patent US20140018376A1, “Use of 1H-Quinazoline-2,4-Diones” (priority 2009, published 2014).

Test system: mouse
Assay: Oral activity in vivo: audiogenic mouse test and/or MES test
Details: oral administration
Protocol: The oral bioavailability was tested using the audiogenic mouse test (Audiogenic seizures, R. L. Collins; Chapter 14, pages: 347-372. In: Experimental Models of Epilepsy; By: Pupura, Penry, Tower, Woodbury, Walter, Raven Press, New York, 1972. Standard Book Number: 0-911216-26-X) and/or the MES test.

Cn1nccc1-c1cc2c(=O)n(NS(C)(=O)=O)c(=O)[nH]c2cc1C(F)(F)F [Compound C-18, N-[6-(2-Methyl-2H-pyrazol-3-yl)-2,4-dioxo-7-trifluoromethyl-1,4-dihydro-2H-quinazolin-3-yl]-methanesulfonamide]
In vivo orally active: Yes

COCCn1nccc1-c1cc2c(=O)n(NS(C)(=O)=O)c(=O)[nH]c2cc1C(F)(F)F [Compound C-4, N-{6-[2-(2-Methoxy-ethyl)-2H-pyrazol-3-yl]-2,4-dioxo-7-trifluoromethyl-1,4-dihydro-2H-quinazolin-3-yl}-methanesulfonamide]
In vivo orally active: Yes

CC(F)c1cc2[nH]c(=O)n(NS(C)(=O)=O)c(=O)c2cc1-c1ccnn1C(C)C (stereo not drawn) [Compound C-17, N-[7-(1-fluoro-ethyl)-6-(2-isopropyl-2H-pyrazol-3-yl)-2,4-dioxo-1,4-dihydro-2H-quinazolin-3-yl]-methanesulfonamide]
In vivo orally active: Yes

CCc1cc2[nH]c(=O)n(NS(C)(=O)=O)c(=O)c2cc1-c1ccnn1C(C)C [Compound C-6, N-[7-Ethyl-6-(2-isopropyl-2H-pyrazol-3-yl)-2,4-dioxo-1,4-dihydro-2H-quinazolin-3-yl]-methanesulfonamide]
In vivo orally active: Yes

CS(=O)(=O)Nn1c(=O)[nH]c2cc(C(F)(F)F)c(-c3ccnn3O)cc2c1=O [Compound C-5, N-[6-(2-Hydroxy-2H-pyrazol-3-yl)-2,4-dioxo-7-trifluoromethyl-1,4-dihydro-2H-quinazolin-3-yl]-methanesulfonamide]
In vivo orally active: Yes

COCCC(O)c1cc2c(=O)n(NS(C)(=O)=O)c(=O)[nH]c2cc1C(F)(F)F (stereo not drawn) [Compound A-18, N-[6-(1-Hydroxy-3-methoxy-propyl)-2,4-dioxo-7-trifluoromethyl-1,4-dihydro-2H-quinazolin-3-yl]-methanesulfonamide]
In vivo orally active: Yes

CCCOC(CC)c1cc2c(=O)n(NS(C)(=O)=O)c(=O)[nH]c2cc1C(F)(F)F (stereo not drawn) [Compound A-6, N-[2,4-Dioxo-6-(1-propoxy-propyl)-7-trifluoromethyl-1,4-dihydro-2H-quinazolin-3-yl]-methanesulfonamide]
In vivo orally active: Yes

COC(C)c1cc2c(=O)n(NS(C)(=O)=O)c(=O)[nH]c2cc1C(F)(F)F (stereo not drawn) [Compound A-2, N-[6-(1-Methoxy-ethyl)-2,4-dioxo-7-trifluoromethyl-1,4-dihydro-2H-quinazolin-3-yl]-methanesulfonamide]
In vivo orally active: Yes

CCCC(O)c1cc2c(=O)n(NS(C)(=O)=O)c(=O)[nH]c2cc1C(F)(F)F (stereo not drawn) [Compound A-15, N-[6-(1-Hydroxy-butyl)-2,4-dioxo-7-trifluoromethyl-1,4-dihydro-2H-quinazolin-3-yl]-methanesulfonamide]
In vivo orally active: Yes

CCC(O)c1cc2c(=O)n(NS(C)(=O)=O)c(=O)[nH]c2cc1C(F)(F)F (stereo not drawn) [Compound A-3, N-[6-(1-Hydroxy-propyl)-2,4-dioxo-7-trifluoromethyl-1,4-dihydro-2H-quinazolin-3-yl]-methanesulfonamide]
In vivo orally active: Yes

CCOC(C)c1cc2c(=O)n(NS(C)(=O)=O)c(=O)[nH]c2cc1C(F)(F)F (stereo not drawn) [Compound A-5, N-[6-(1-Ethoxy-ethyl)-2,4-dioxo-7-trifluoromethyl-1,4-dihydro-2H-quinazolin-3-yl]-methanesulfonamide]
In vivo orally active: Yes

CC(C)n1nccc1-c1cc2c(=O)n(NS(C)(=O)=O)c(=O)[nH]c2cc1C(F)F [Compound C-10, N-[7-Difluoromethyl-6-(2-isopropyl-2H-pyrazol-3-yl)-2,4-dioxo-1,4-dihydro-2H-quinazolin-3-yl]-methanesulfonamide]
In vivo orally active: Yes

Cn1nccc1-c1cc2c(=O)n(NS(C)(=O)=O)c(=O)[nH]c2cc1C(F)F [Compound C-9, N-[7-Difluoromethyl-6-(2-methyl-2H-pyrazol-3-yl)-2,4-dioxo-1,4-dihydro-2H-quinazolin-3-yl]-methanesulfonamide]
In vivo orally active: Yes

CS(=O)(=O)Nn1c(=O)[nH]c2cc(C(F)(F)F)c(C3CCOC3)cc2c1=O (stereo not drawn) [Compound B-3, N-[2,4-Dioxo-6-(tetrahydro-furan-3-yl)-7-trifluoromethyl-1,4-dihydro-2H-quinazolin-3-yl]-methanesulfonamide]
In vivo orally active: Yes

CC(C)n1nccc1-c1cc2c(=O)n(NS(C)(=O)=O)c(=O)[nH]c2cc1C(C)(F)F [Compound C-16, N-[7-(1,1-difluoro-ethyl)-6-(2-isopropyl-2H-pyrazol-3-yl)-2,4-dioxo-1,4-dihydro-2H-quinazolin-3-yl]-methanesulfonamide]
In vivo orally active: Yes

CS(=O)(=O)Nn1c(=O)[nH]c2cc(C(F)(F)F)c(C3CCCO3)cc2c1=O (stereo not drawn) [Compound B-2, N-[2,4-Dioxo-6-(tetrahydro-furan-2-yl)-7-trifluoromethyl-1,4-dihydro-2H-quinazolin-3-yl]-methanesulfonamide]
In vivo orally active: Yes

CC(C)n1nccc1-c1cc2c(=O)n(NS(C)(=O)=O)c(=O)[nH]c2cc1C(F)(F)F [Compound C-2, N-[6-(2-Isopropyl-2H-pyrazol-3-yl)-2,4-dioxo-7-trifluoromethyl-1,4-dihydro-2H-quinazolin-3-yl]-methanesulfonamide]
In vivo orally active: Yes

CCc1cc2[nH]c(=O)n(NS(C)(=O)=O)c(=O)c2cc1-c1ccnn1C [Compound C-11, N-[7-Ethyl-6-(2-methyl-2H-pyrazol-3-yl)-2,4-dioxo-1,4-dihydro-2H-quinazolin-3-yl]-methanesulfonamide]
In vivo orally active: Yes

Cn1nccc1-c1cc2c(=O)n(NS(C)(=O)=O)c(=O)[nH]c2cc1C(C)(F)F [Compound C-15, N-[7-(1,1-difluoro-ethyl)-6-(2-methyl-2H-pyrazol-3-yl)-2,4-dioxo-1,4-dihydro-2H-quinazolin-3-yl]-methanesulfonamide]
In vivo orally active: Yes

CC(OC1CCCC1)c1cc2c(=O)n(NS(C)(=O)=O)c(=O)[nH]c2cc1C(F)(F)F (stereo not drawn) [Compound A-14, N-[6-(1-Cyclopentyloxy-ethyl)-2,4-dioxo-7-trifluoromethyl-1,4-dihydro-2H-quinazolin-3-yl]-methanesulfonamide]
In vivo orally active: yes

CC(C)n1nccc1-c1cc2c(=O)n(NS(C)(=O)=O)c(=O)[nH]c2cc1CF [Compound C-3, N-[7-Fluoromethyl-6-(2-isopropyl-2H-pyrazol-3-yl)-2,4-dioxo-1,4-dihydro-2H-quinazolin-3-yl]-methanesulfonamide]
In vivo orally active: Yes

CC(C)c1cc2[nH]c(=O)n(NS(C)(=O)=O)c(=O)c2cc1-c1ccnn1C [Compound C-7, N-[7-Isopropyl-6-(2-methyl-2H-pyrazol-3-yl)-2,4-dioxo-1,4-dihydro-2H-quinazolin-3-yl]-methanesulfonamide]
In vivo orally active: Yes

CCC(OC(C)C)c1cc2c(=O)n(NS(C)(=O)=O)c(=O)[nH]c2cc1C(F)(F)F (stereo not drawn) [Compound A-7, N-[6-(1-isopropoxy-propyl)-2,4-dioxo-7-trifluoromethyl-1,4-dihydro-2H-quinazolin-3-yl]-methanesulfonamide]
In vivo orally active: Yes

CC(C)OC(C)c1cc2c(=O)n(NS(C)(=O)=O)c(=O)[nH]c2cc1C(F)(F)F (stereo not drawn) [Compound A-4, N-[6-(1-Isopropoxy-ethyl)-2,4-dioxo-7-trifluoromethyl-1,4-dihydro-2H-quinazolin-3-yl]-methanesulfonamide]
In vivo orally active: Yes

CC(C)c1cc2[nH]c(=O)n(NS(C)(=O)=O)c(=O)c2cc1-c1ccnn1C(C)C [Compound C-8, N-[7-Isopropyl-6-(2-isopropyl-2H-pyrazol-3-yl)-2,4-dioxo-1,4-dihydro-2H-quinazolin-3-yl]-methanesulfonamide]
In vivo orally active: yes

CC(O)c1cc2c(=O)n(NS(C)(=O)=O)c(=O)[nH]c2cc1C(F)(F)F (stereo not drawn) [Compound A-1, N-[6-(1-Hydroxy-ethyl)-2,4-dioxo-7-trifluoromethyl-1,4-dihydro-2H-quinazolin-3-yl]-methanesulfonamide]
In vivo orally active: Yes

COCCn1nccc1-c1cc2c(=O)n(NS(C)(=O)=O)c(=O)[nH]c2cc1C(C)C [Compound C-1, N-{7-Isopropyl-6-[2-(2-methoxy-ethyl)-2H-pyrazol-3-yl]-2,4-dioxo-1,4-dihydro-2H-quinazolin-3-yl}-methanesulfonamide]
In vivo orally active: yes

CCOC(CC)c1cc2c(=O)n(NS(C)(=O)=O)c(=O)[nH]c2cc1C(F)(F)F (stereo not drawn) [Compound A-13, N-[6-(1-Ethoxy-propyl)-2,4-dioxo-7-trifluoromethyl-1,4-dihydro-2H-quinazolin-3-yl]-methanesulfonamide]
In vivo orally active: Yes

CCc1cc2[nH]c(=O)n(NS(C)(=O)=O)c(=O)c2cc1-c1ccnn1CC [Compound C-12, N-[7-Ethyl-6-(2-ethyl-2H-pyrazol-3-yl)-2,4-dioxo-1,4-dihydro-2H-quinazolin-3-yl]-methanesulfonamide]
In vivo orally active: Yes

Cn1nncc1-c1cc2c(=O)n(NS(C)(=O)=O)c(=O)[nH]c2cc1C(F)(F)F [Comparative, N-(6-(1-methyl-1H-1,2,3-triazol-5-yl)-2,4-dioxo-7-trifluoromethyl-1,4-dihydro-2H-quinazolin-3-yl]-methanesulfonamide, reference compound]
In vivo orally active: No
